# Experimental data published in patent US20260263497A1, “METHOD OF TREATING SCHIZOPHRENIA AND COMPOSITION FOR USE THEREIN” (Academia Sinica, priority 2022, published 2026).
# Columns and labels:
# Type in all cases: in vivo, mice (C57BL/6)
# [1] = test system: METH-induced hyperlocomotion in METH-naïve wild-type mice; assay: METH-induced hyperlocomotor activity (METH-induced behavioral sensitization, open field); settings: for effect on METH-induced hyperlocomotion activity, total travelled distance: i.p. co-injection 0.3, 1, 3 mg/kg with METH 2 mg/kg, 60 minutes, FIG. 2
# Protocol: (§1) Animals: Male mice (C57BL/6; 2-3 months) were purchased from and maintained in the animal facility of National Taiwan University (Taipei, Taiwan) under standard condition with a 12-hr light/12-hr dark cycle. All animal experimental procedures were performed in accordance with the guidelines established by the Institutional Animal Care and Use Committee (IACUC) of the National Taiwan University and Institute of Biomedical Sciences (IBMS) at Academia Sinica (Taipei, Taiwan).
# (§2) The locomotor activity: The locomotor activity was monitored and recorded using SMART 3.0 video tracking software (Panlab Harvard Apparatus, Barcelona, Spain) for 1 hour following the manufacture's protocol.
# Methamphetamine (METH) is a dopamine enhancer that elevates synaptic dopamine in the brain and is frequently used to induce schizophrenia-like behaviors in mice.^6 Thus, METH-induced psychosis mice was used to evaluate the in vivo efficacy of JMF3464.
# Male METH-naïve wild-type (WT) mice (3-6 months old) received intraperitoneal co-injections of JMF3464 (0.3, 1, or 3 mg/kg) and METH (2 mg/kg) immediately after establishing a 20-minute baseline for locomotor activity. The locomotor activity was recorded for 60 minutes after injection. A saline+vehicle group and a METH+vehicle group are used as control groups. In addition, under the same experimental conditions as JMF3464, the compound CGS21680 (A2A receptor agonist) with potential for treating schizophrenia was used as a comparison. The resulted data was expressed and analyzed as one-way ANOVA of total travelled distance (see FIG. 2) and two-way ANOVA of distance by 5-minute time bin (see FIGS. 3A and 3B) and.
# as §1, with “IACUC” for “Institutional Animal Care and Use Committee (IACUC)”, “IBMS” for “Institute of Biomedical Sciences (IBMS)”
# Male METH-naïve wild-type (WT) mice (3-6 months old) received intraperitoneal co-injections of JMF1907 (1 mg/kg) and METH (2 mg/kg) immediately after establishing a 20-minute baseline for locomotor activity. The locomotor activity was recorded for 60 minutes after injection. In this study, a saline+vehicle (5% DMSO) group and a METH+vehicle (5% DMSO) group are used as control groups. In addition, the compound JMF3464 described above, and the compound S-(4-Nitrobenzyl)-6-thioinosine (NBTI), known as an inhibitor of equilibrative nucleoside transporter 1 (ENTi) transporter, are used as comparative examples with the same experimental conditions as JMF1907. The resulted data was expressed and analyzed as one-way ANOVA of total travelled distance (see FIG. 5) and two-way ANOVA of distance by 5-minute time bin (see FIG. 6).
# [2] = test system: locomotor activity of drug-naïve WT mice; assay: Effect of JMF3464 alone on locomotor activity; settings: single i.p. injection 0.3, 0.5, 1, 3 mg/kg
# Protocol: as §1, §2
# Male drug-naïve WT mice (3-6 months old) received a single dose JMF3464 injection (0.3, 0.5, 1, and 3 mg/kg, respectively) via intraperitoneal injection and the locomotor activity was recorded immediately after injection. A vehicle group is used as control group. The data were expressed and analyzed as one-way ANOVA of total travelled distance for 60 minutes (see FIG. 1A) and two-way ANOVA of distance by 5-minute time bin (see FIG. 1B).
# [3] = test system: METH-induced CPP in mice; assay: METH-induced conditioned place preference (CPP)
# Protocol: as §1
# The METH-induced conditioned place preference (CPP) task is further performed to examine the therapeutic effect of JMF3464 on METH-induced addiction.
# The METH-induced CPP procedure is shown as follows. The conditioned place preference (CPP) paradigm is a standard preclinical behavioral model used to study the rewarding and aversive effects of drugs. The paradigm usually uses a two-compartment apparatus with each compartment displaying distinct contextual characteristics (e.g., wall colors/patterns and floor texture). The CPP model consisted of three phases: pre-conditioning (baseline), conditioning, and post-conditioning (i.e., CPP test). […] Lastly, one day after the conditioning sessions, mice underwent a CPP test where they were again given free access to all compartments for 15 minutes and the time spent in the METH-paired side was measured, which provided a measure of CPP expression.
smiles,measurement,setting,value
OC[C@H]1O[C@@H](n2cnc3c(NCCc4c[nH]c5ccccc45)ncnc32)C(O)C1O (some centres unmarked) [JMF1907],"improvement of METH-induced hyperactive behavior, five-minute intervals","[1]; 1 mg/kg i.p. co-injection with METH 2 mg/kg, open field 60 minutes, FIG. 6",comparable to the control group
same,"effect on METH-induced hyperactive behavior, overall locomotion","[1]; 1 mg/kg i.p. co-injection with METH 2 mg/kg, open field 60 minutes, vehicle 5% DMSO, compared to JMF3464 and NBTI, FIG. 5",significantly improves
"OC[C@H]1O[C@@H](n2cnc3c(NCc4ccc(Br)s4)ncnc32)[C@H](O)[C@@H]1O [JMF3464, N6-[(5-bromothien-2-yl)methyl]adenosine]",effect on locomotor activity,[2]; 60 minutes,dose-dependent effect
same,reduction of total locomotor activity,"[2]; total travelled distance 60 minutes, vs vehicle",~ 20%
same,inhibitory effect on METH-induced CPP,"[3]; 1 mg/kg i.p. 10 minutes before each METH conditioning session, FIG. 4A",neither 1 mg/kg nor 3 mg/kg of JMF3464 exerted inhibitory effect
same,inhibitory effect on METH-induced CPP,"[3]; 3 mg/kg i.p. 10 minutes before each METH conditioning session, FIG. 4B",neither 1 mg/kg nor 3 mg/kg of JMF3464 exerted inhibitory effect
same,"effect on METH-induced locomotion activity, 5-minute time bins","[1]; 3 mg/kg i.p. co-injection with METH 2 mg/kg, vs METH+vehicle, FIGS. 3A, 3B",significantly lowered
same,"effect on METH-induced hyperlocomotion activity, total travelled distance",[1],dose-dependently suppressed
same,effect on METH-induced behavioral sensitization after repeated use,"[1]; repeated use, no further conditions given",no effect
"CN[C@@H](C)Cc1ccccc1 [METH, Methamphetamine]",hyperlocomotion induced by METH,"[1]; METH 2 mg/kg i.p. + vehicle vs saline+vehicle, total travelled distance 60 minutes",approximately 200%
"CCNC(=O)[C@H]1O[C@@H](n2cnc3c(N)nc(NCCc4ccc(CCC(=O)O)cc4)nc32)[C@H](O)[C@@H]1O [CGS21680, reference compound]","effect on METH-induced hyperlocomotion activity, total travelled distance",[1],dose-dependently suppressed
